According to patent US20100278730A1, “Non-Invasive Molecular Imaging of Cellular Histone Deacetylase Substrate Using Magnetic Resonance Spectroscopy (MRS) or Positron Emission Tomography (PET)” (priority 2007, published 2010):

Columns and labels:
[1] = Toxicity study of Boc-lysine trifluoroacetic acid (BLT) in nude mice; type: in vivo; details: 100 mg/kg BLT i.p. in DMSO on days 1, 8, 15; male nude mice; vs DMSO-treated controls
Method: Rationale: BLT must have no detectable toxic effects at levels that result in an MRS-visible signal in vivo if it were to be used as an imaging agent. To verify this, we monitored the toxicity of 100 mg/kg BLT (˜3 mM plasma concentration), which, based on previously published studies of fluorinated drugs, was expected to result in an MRS-detectable signal. (Hamstra, et al., Mol Ther, 10: 916-928, 2004; McSheehy, et al., Cancer Res, 60: 2122-2127, 2000; Gade, et al., Magn Reson Med, 52: 169-173, 2004; Chung, et al., Clin Cancer Res, 10:3863-3870, 2004; Aboagye, et al., Cancer Res, 58: 4075-4078, 1998).
Methods and Results: Four male nude mice were injected intraperitoneally with 100 mg/kg BLT in 40 μl of DMSO and 4 mice were injected with 40 μl of DMSO alone on days 1, 8, and 15 of the study. The mice were monitored daily for changes in weight, skin and hydration status, activity, behavior, feeding, and neurological status. On day 16, blood samples were collected, and blood counts and hepatic and kidney functions assessed (bilirubin, total protein, aspartate aminotransferase, alanine aminotransferase, creatinine, and blood urea nitrogen). At the end of the study, following animal euthanasia, mice were dissected and tissue samples obtained for histology (hematoxylin-eosin staining).

PC-3 tumor = experiment: 19F/31P/1H MRS of PC-3 tumors after BLT injection, with or without SAHA treatment (Example 2); type: in vivo, mice
Method: Methods and Results: PC-3 cells (10^6) were injected into the flank of male nude mice. MR experiments were first performed when tumors were ˜1 cm in diameter. Mice were anesthetized using isoflurane. A 10-mm home-built ^19F surface coil (milled from a polymer-based flexible substrate using a ProtoMat C100/HF (LPKF Laser & Electronics, Wilsonville, Oreg.)) was placed over the tumor, and the animal placed at the center of the magnet. Varacator diodes in the impedance matching circuitry provided a means to match and tune the coil from the console. Following localization, a T2-weighted image of the tumor was recorded using the RARE sequence (TE=45 ms, TR=2 s) via the ^19F surface coil tuned to ^1H. Localized shimming was performed using FASTMAP and achieved ˜20 Hz line width for the water peak. A localized ^1H spectrum was then acquired using a single-voxel PRESS sequence (TE=21 ms, TR=3 s, 96 scans) with VAPOR water suppression. Following retuning of the coil to ^19F, a ‘baseline’ ^19F spectrum was then acquired using a one-pulse sequence (45° flip angle, 300 scans, TR=1 s). A microsphere filled with 20 mM trifluorotoluene (−63.7 ppm) served as an external reference. 100 mg/kg BLT (in 40 μl DMSO) was then injected i.p. and sequential 5-minute ^19F spectra acquired over 90 minutes. The ^19F surface coil was then replaced with a ^31P coil and a spectrum acquired from the tumor region using a one-pulse sequence (30° flip angle, 900 scans, TR=2 s). Adequate SNR was achieved within 30 min.
Following 1 week of treatment, the MR study was repeated.

[2] = tested on: PC3 human prostate cancer cells tumor; experiment: In vivo detection of HDAC inhibition by MRS in PC3 tumors (Example 3); design: species or system mice
Method: Methods. 5×10^6 PC3 human prostate cancer cells suspended in matrigel were injected subcutaneously in male CD-1 nude mice (n=5). When an average tumor volume of 0.2 cm^3 was reached, mice were separated into 2 groups. The treated group (n=3) was treated daily with 50 mg/kg SAHA intraperitoneally, while the control mice were treated with carrier DMSO. MRS was performed on a 4.7T Biospec (Bruker Biospin, Billerica, Mass.) prior to treatment (day 0) and on days 2 and 7 of treatment, using a 1.5 cm (inner diameter) dual-tuned ^1H/^19F surface coil. […] BLT levels determined by ^19F MRS were normalized to the external reference aaa-trifluorotoluene (TFT) (Sigma-Aldrich Chemical Co., St. Louis, Mo.) in a micro-cell spherical bulb placed at a permanent location relative to the coil and expressed as % of maximum tumor BLT levels in each study. For each mouse and also for average values, a paired t-test of BLT evolution was performed for days 2 and 7 with respect to day 0. ^1H MRS data was analyzed by normalizing the tCho signal either to the total ^1H signal or to the internal water signal.

MB435 tumor xenografts = experiment: PET of [18F]-FAHA in MB435 tumor xenograft-bearing nude rats (second Example 4); type: in vivo, rat; details: blocking study, SAHA 50 mg/kg i.p. 1 hour prior; p<0.01 unpaired t test
Method: Methods: [^18F]-FAHA was synthesized with high specific activity according to a method developed at M. D. Anderson Cancer Center. Human breast cancer cells, cell line MB435, grown as described in Example 3, were used to grow tumor xenografts in nude rats. Ten million cancer cells were injected subcutaneously in the neck area of six nude rats. When tumors were 1 cm in diameter, animals were anesthetized, injected with [^18F]-FAHA (37 MBq) and PET imaging was performed (dynamic) up to 60 min post-injection. Two days after the initial imaging, another PET imaging with [^18F]-FAHA was performed using a […] (SAHA). The animals were given SAHA (50 mg/kg) intraperitoneally 1 hour prior to injection of the radiotracer.

[3] = tested on: HDAC activity in rat brain; experiment: PET imaging of HDAC activity in rat brain using [18F]-FAHA (Example 6); type: in vivo; details: SAHA 50 mg/kg i.p. 1 hour prior; p<0.01 unpaired t test
Method: Methods: [^18F]-FAHA was synthesized according to the methods developed in our laboratory in high specific activity. Imaging studies with [^18F]-FAHA were conducted in five rats using a PET scanner under isoflurane inhalation anesthesia. The animals were injected intravenously with 37 MBq of [^18F]-FAHA and dynamic scanning PET (0-60 min) was performed. During the imaging session, the rats were anesthetized with 1-1.5 vol % isoflurane/oxygen inhalation and continuously heated with a heating lamp. Two days after the initial study, another PET imaging was performed with [^18F]-FAHA using an […] (SAHA). Each animal was given SAHA (50 mg/kg), intraperitoneally 1 hour prior to injection of the [^18F]-FAHA.
In Table 6, “baseline” refers to brain uptake of FAHA without blocking by SAHA.

| Compound | toxicity (weight, behavior, blood counts, hepatic and kidney functions, histology) [1] | decrease in tumor BLT levels (PC-3 tumor; first 50 min following BLT injection i.p., PC-3 tumor, 19F MRS) | 19F MRS of BLT as indicator of HDAC inhibition ([2]; PC3 tumors, SAHA 50 mg/kg daily i.p., days 0, 2, 7, 100 mg/kg BLT i.p.) | tumor growth (PC-3 tumor; 50 mg/kg SAHA in DMSO daily i.p., PC-3 tumor, preliminary data) | BLT levels in the tumor in vivo (19F MRS, normalized to tumor size) (PC-3 tumor; 1 week of 50 mg/kg SAHA daily i.p. vs DMSO control and pre-treatment) | phosphomonoesters and choline-containing metabolites (31P MRS and 1H MRS) ([2]; PC3 tumors following SAHA treatment 50 mg/kg daily i.p.) | effect on uptake of [18F]-FAHA inside tumor (MB435 tumor xenografts) | effect on uptake of [18F]-FAHA inside brain [3] |
| --- | --- | --- | --- | --- | --- | --- | --- | --- |
| CC(C)(C)OC(=O)N[C@@H](CCCCN)C(=O)O.O=C(O)C(F)(F)F [BLT, Boc-lysine trifluoroacetic acid] | no indication of significant toxicity was observed | ~25% | detects HDAC inhibition prior to effect on tumor size |  |  |  |  |  |
| O=C(CCCCCCC(=O)Nc1ccccc1)NO [SAHA, suberoylanilide hydroxamic acid, reference compound] |  |  |  | inhibition of tumor growth | higher | transient increase | significantly inhibited | significantly inhibited |
